In PMC7805408, “Filaggrin Polymorphisms and the Uptake of Chemicals through the Skin—A Human Experimental Study” (Environmental Health Perspectives, 2021):

Experiments:
[1] = test system: estrogen receptor 1, androgen receptor, and cytochrome P450 aromatase B; set-up: method as in Blüthgen et al. 2012; settings: zebrafish, 84μg/L; ref Blüthgen et al. 2012; cited from earlier work
[2] = Population toxicokinetic analysis of dermal absorption and disposition (three-compartment model, Monolix); assay type: in vivo, human; settings: for Lag time (mean±SD): dermal absorption; for Lag time (mean±SD) / Absorption rate constant (mean±SD): unadjusted; for Absorption rate constant (mean±SD): dermal; for Rate constant K21 (mean ± SD): from the central to the peripheral compartment; for Rate constant K12 (mean ± SD): from the peripheral to the central compartment
Procedure: Dermal absorption and disposition were assessed by population toxicokinetic analysis. A three-compartment structural model representing skin and central and peripheral tissues was used (Figure 2). The skin compartment encompasses a lag time for skin penetration ( Tlag ) and an absorption rate constant ( ka ). Urinary excretion from the central compartment was described by an elimination rate constant ( ke ), and exchange between the central and peripheral compartments was described by two rate constants ( k12 and k21 ). All rate constants are first order.
Figure 2. Compartmental model used in the toxicokinetic analysis: lag time for skin penetration ( Tlag , h), first order skin absorption constant ( Ka , h-1), volume of central compartment (V, L), peripheral compartment (P) first order transfer rate constants ( k12 and k21 , h^−1 ), and first order elimination rate constant (k, h^−1 ).
The input data were the dermally applied dose (nmol) at time zero and the mid–time point (h) and the excretion rate (nmol/h) of each chemical in the urine samples. Subjects excluded from the AUC analysis were also excluded from the toxicokinetic analysis (one FLG null carrier and one wt carrier for oxybenzone).
The software Monolix (version 2019R2; Lixoft) was used to estimate the model parameters. The built-in statistical model consists of an observation model and an individual model based on the structural toxicokinetic model. The observational model was set to a normal distribution, and a residual error model included in the observational model was used as proposed by the software after initial analysis. A lognormally distributed random effect was added to all model parameters. Correlations between parameters were accounted for if proposed by the software. The different genotypes (FLG null/wt, and FLG null/wt CNV20–22/wt CNV23–24) were entered as categorical covariates.

[3] = set-up: method as in Santamaria et al. 2020; settings: ref Santamaria et al. 2020; cited from earlier work
[4] = set-up: method as in Okereke et al. 1993; settings: rats; ref Okereke et al. 1993; cited from earlier work
[5] = ref http://www.popstoolkit.com/tools/HHRA/TDI_USEPA.aspx; cited from earlier work
[6] = in vivo, po; cited from earlier work
[7] = ref https://efsa.onlinelibrary.wiley.com/doi/pdf/10.2903/j.efsa.2006.61r; cited from earlier work
[8] = test system: aryl hydrocarbon receptor; set-up: method as in Medjakovic et al. 2014; settings: in vitro; ref Medjakovic et al. 2014; cited from earlier work
[9] = FLG null carriers, null/CNV grouping
[10] = FLG null, null vs wt grouping (Table S4)
[11] = FLG null, null/CNV grouping (Table S9)
[12] = FLG wt, null vs wt grouping (Table S4)

SMILES	Absorption rate constant (mean ± SD), adjusted for BMI, age and sex ([2]; FLG null (Table S7)) [h⁻¹]	Lag time (mean ± SD), adjusted for BMI, age and sex ([2]; FLG null (Table S7)) [h]	Excretion rate constant K (mean ± SD) ([2]; FLG null (Table S9)) [h⁻¹]	Lag time (mean±SD) [2, 9] [h]	Absorption rate constant (mean±SD) [2, 9] [h⁻¹]	Dermal absorption rate constant (mean ± SD) [2, 10] [h⁻¹]	Lag time for dermal absorption (mean ± SD) [2, 10] [h]	Volume of central compartment (mean ± SD) [2, 11] [L]	Absorption rate constant (mean ± SD), adjusted for BMI, age and sex ([2]; FLG wt CNV20–22 (Table S7)) [h⁻¹]	Lag time (mean ± SD), adjusted for BMI, age and sex ([2]; FLG wt CNV20–22 (Table S7)) [h]	Excretion rate constant K (mean ± SD) ([2]; FLG wt CNV20–22 (Table S9)) [h⁻¹]	Volume of central compartment (mean ± SD) ([2]; FLG wt CNV20–22 (Table S9)) [L]	Lag time (mean±SD) ([2]; FLG wt CNV20–22 carriers) [h]	Absorption rate constant (mean±SD) ([2]; FLG wt CNV20–22 carriers) [h⁻¹]	Absorption rate constant (mean ± SD), adjusted for BMI, age and sex ([2]; FLG wt CNV23–24 (Table S7)) [h⁻¹]	Lag time (mean ± SD), adjusted for BMI, age and sex ([2]; FLG wt CNV23–24 (Table S7)) [h]	Excretion rate constant K (mean ± SD) ([2]; FLG wt CNV23–24 (Table S9)) [h⁻¹]	Volume of central compartment (mean ± SD) ([2]; FLG wt CNV23–24 (Table S9)) [L]	Lag time (mean±SD) ([2]; FLG wt CNV23–24 carriers) [h]	Absorption rate constant (mean±SD) ([2]; FLG wt CNV23–24 carriers)	also measured
COc1ccc(C(=O)c2ccccc2)c(O)c1 [Oxybenzone, (2-Hydroxy-4-methoxyphenyl)-phenylmethanone]	0.22 ± 0.06	0.14 ± 0.18	0.05 ± 0.02	0.07 ± 0.01	0.23 ± 0.07	0.29 ± 0.08	0.10 ± 0.02	71.5 ± 32.4	0.20 ± 0.06	0.04 ± 0.04	0.05 ± 0.01	81.5 ± 42.7	0.04 ± 0.009	0.22 ± 0.08	0.13 ± 0.04	0.13 ± 0.17	0.06 ± 0.04	103 ± 52.36	0.23 ± 0.13	0.13 ± .04 h⁻¹	Expression of estrogen receptor 1, androgen receptor, and cytochrome P450 aromatase B [1]: decreased expression; Dermal absorption rate constant (mean ± SD) [2, 12]: 0.22 ± 0.09 h⁻¹; Lag time for dermal absorption (mean ± SD) [2, 12]: 0.13 ± 0.07 h; Mean dermal absorption rate constant higher for FLG null carriers than wt carriers with CNV23–24 ([2]; Table 2): 77%; Rate constant K21 (mean ± SD) ([2]; FLG null (Table S9)): 0.01 ± 0.006 h⁻¹; Rate constant K21 (mean ± SD) ([2]; FLG wt CNV20–22 (Table S9)): 0.01 ± 0.008 h⁻¹; Rate constant K21 (mean ± SD) ([2]; FLG wt CNV23–24 (Table S9)): 0.007 ± 0.003 h⁻¹; Rate constant K12 (mean ± SD) ([2]; FLG null (Table S9)): 0.31 ± 0.02 h⁻¹; Rate constant K12 (mean ± SD) ([2]; FLG wt CNV20–22 (Table S9)): 0.31 ± 0.02 h⁻¹; Rate constant K12 (mean ± SD) ([2]; FLG wt CNV23–24 (Table S9)): 0.32 ± 0.02 h⁻¹; Dermal absorption rate constant higher for FLG null compared with wt carriers ([2]; null vs wt grouping (Table S4)): 32%; Effect in mice [3]: affect fetal growth and sex ratio; Share of what was found in urine in the form of the parent compound, free and conjugated with glucuronic acid [4]: About 50%
c1cc2ccc3cccc4ccc(c1)c2c34 [Pyrene, pyrene]	0.23 ± 0.09	0.89 ± 0.15	0.17 ± 0.02	0.91 ± 0.12	0.16 ± 0.05	0.17 ± 0.06	0.88 ± 0.13	876 ± 344	0.23 ± 0.10	1.06 ± 0.17	0.18 ± 0.04	954 ± 410	1.06 ± 0.16	0.14 ± 0.03	0.14 ± 0.05	1.34 ± 0.32	0.18 ± 0.02	1232 ± 541	1.41 ± 0.29	0.11 ± 0.03 h⁻¹	Dermal absorption rate constant (mean ± SD) [2, 12]: 0.15 ± 0.06 h⁻¹; Lag time for dermal absorption (mean ± SD) [2, 12]: 1.20 ± 0.25 h; Mean dermal absorption rate constant higher for FLG null carriers than wt carriers with CNV23–24 ([2]; Table 2): 45%; Rate constant K21 (mean ± SD) ([2]; FLG null (Table S9)): 0.02 ± 0.0008 h⁻¹; Rate constant K21 (mean ± SD) ([2]; FLG wt CNV20–22 (Table S9)): 0.02 ± 0.0006 h⁻¹; Rate constant K21 (mean ± SD) ([2]; FLG wt CNV23–24 (Table S9)): 0.02 ± 0.0005 h⁻¹; Rate constant K12 (mean ± SD) ([2]; FLG null (Table S9)): 0.12 ± 0.04 h⁻¹; Rate constant K12 (mean ± SD) ([2]; FLG wt CNV20–22 (Table S9)): 0.12 ± 0.03 h⁻¹; Rate constant K12 (mean ± SD) ([2]; FLG wt CNV23–24 (Table S9)): 0.11 ± 0.02 h⁻¹; tolerable daily intake (TDI) [5]: 0.03 mg/kg
Cc1cc(C)nc(Nc2ccccc2)n1 [Pyrimethanil, 4,6-dimethyl-N-phenyl-2-pyrimidinamine]																					Dermal absorption rate constant higher for FLG null compared with wt carriers ([2]; human, in vivo): 18%; Mean dermal absorption rate constant higher for FLG null carriers than wt carriers with CNV23–24 ([2]; human, in vivo): 50%; Share of the compound found in urine as OH-pyrimethanil [6]: 80%; acute toxicity [7]: low acute toxicity; aryl hydrocarbon receptor activity [8]: aryl hydrocarbon receptor agonist
